Laboratory results as given in US11147792B2, “Inhibitors of microbially induced amyloid” (Axial Therapeutics, Inc, priority 2017, dated 2021).
Like-named read-outs stand apart in the source and are kept apart here.

Tests used:
[1] = biological target: T1, human α-synuclein (Homo sapiens, UniProt P37840); assay: In vitro Thioflavin T assay of α-synuclein aggregation; assay type: biochemical; conditions: compounds at 50 μM, 50 μM α-synuclein, ThT fluorescence at 40 hours
T1 construct: made in house; host or cells: E. coli
Protocol: In Vitro Thioflavin T Assay to Determine the Effects of Compounds on α-Synuclein Aggregation.
The ammonium sulfate pellet was washed with an equal volume of 100 mM ammonium acetate in ethanol, pelleted via centrifugation, washed twice with ethanol, dried overnight, resuspended in 10 mM Tris pH 7.4, and passed through a 50 kDa cut-off column. The assay was conducted in 96-well black microplates with a single 2 mm bead in each well, 40 μM ThioflavinT, 1% DMSO, 50 μM α-synuclein, 100 mM sodium chloride, 9.3 mM potassium phosphate pH 7.3, 4.6 mM Tris pH 7.4 (added as the solvent for α-synuclein or independently for controls lacking α-synuclein), and compounds at 1 μM or 50 μM. […] Readings were performed hourly for up to 73 hours. The effect of compounds on α-synuclein aggregation in the assay was determined with data from 40 hours, following the plateau of the fluorescent signal in the untreated (no compound) control wells containing α-synuclein. Fluorescence values for each compound with α-synuclein were first adjusted by subtracting the average fluorescence of the compound in the absence of α-synuclein.

[2] = biological target: T2, α-synuclein seeded by E. coli CsgA (Homo sapiens, UniProt P37840); assay: In vitro Thioflavin T assay of CsgA-seeded α-synuclein aggregation; assay type: biochemical; conditions: compounds at 50 μM; 2 μM CsgA, 50 μM α-synuclein; ThT fluorescence at 40 hours; read-out: Inhibition of Aggregation CsgA-seeded αSyn
T2 construct: made in house; host or cells: E. coli NEB 3016 slyD::kan (CsgA, pET11d); E. coli (α-synuclein)
Protocol: In Vitro Thioflavin T Assay to Determine the Effects of Compounds on CsgA-Seeded α-Synuclein Aggregation.
To induce over-expression of CsgA, 0.5 mM IPTG was added to cultures with an optical density at 600 nm (OD600) of 0.8-1, and induced cells were cultured at 37° C. for 1 hour prior to harvest via centrifugation. […] Buffers with imidazole were freshly prepared prior to the protein purification. Purified CsgA was passed through a 30 kDa molecular weight cut-off filter and through a desalting column. All steps of the CsgA purification in the absence of guanidine hydrochloride were conducted in rapid succession with as little delay as possible. […] The ammonium sulfate pellet was washed with an equal volume of 100 mM ammonium acetate in ethanol, pelleted via centrifugation, washed twice with ethanol, dried overnight, resuspended in 10 mM Tris pH 7.4, and passed through a 50 kDa cut-off column. The assay was conducted in 96-well black microplates with a single glass 2 mm bead per well, 40 μM ThioflavinT, 1% DMSO, 2 μM CsgA, 50 μM α-synuclein, 100 mM sodium chloride, 9.3 mM potassium phosphate pH 7.3, and compounds at 50 μM. […] The effect of compounds on CsgA-seeded α-synuclein aggregation in the assay was determined with data from 40 hours, following the plateau of the fluorescent signal in the untreated (no compound) control wells containing CsgA and α-synuclein. Fluorescence values for each compound with CsgA and α-synuclein were first adjusted by subtracting the average fluorescence of the compound in the absence of CsgA and α-synuclein.

[3] = system: Thy1-αSyn mice (ASO) mono-colonized with WT E. coli; assay: Motor function of germ-free Thy1-αSyn (ASO) mice mono-colonized with WT E. coli, EGCG in drinking water; assay type: in vivo, mouse; conditions: EGCG ad lib in drinking water vs vehicle
Protocol: Evidence has linked unregulated α-synuclein expression in humans to a higher risk of PD, providing an epidemiological foundation for the Thy1-α-synuclein mouse model. Defects in coordinated motor tasks become evident at 12 weeks of age. Motor function is measured via four tests: beam traversal, pole descent, nasal adhesive removal, and hind limb clasping reflexes, as previously validated in this model (described in Fleming et al., J. Neurosci. 24, 9434-9440 (2004), and Sampson et al., Cell 167(6):1469-1480 (2016) the content of which are hereby expressly incorporated by reference in its entirety). […] Removal of an adhesive from the nasal bridge, a test of fine motor control, is also impaired in SPF-ASO mice compared to SPF-WT mice, as is the hind limb clasping reflex, a measure of striatal dysfunction.
Germ-free Thy1-αSyn mice (ASO) mono-colonized with WT E. coli at 5-6 weeks of age, and given water alone (Vehicle: Veh) or treated with EGCG ad lib in drinking water (+EGCG). RNA was extracted from fecal pellets and csgA expression quantified by qRT-PCR, relative to rrsA. FIG. 1C is a graph showing fold-change in csgA expression. Motor function was assessed at 15-16 weeks of age by quantifying beam traversal time (FIG. 1D), pole descent time (FIG. 1E), nasal adhesive removal time (FIG. 1F), hindlimb clasping score (FIG. 1G), and wire hang tests (FIG. 1H). Time to cross, time to descent, time to remove, and hindlimb score were lower in the EGCG-treated mice, while time to fall was higher in the EGCG-treated mice compared to vehicle treated control.
Inhibition of functional amyloid formation was studied. Germ-free Thy1-αSyn mice (ASO) were monocolonized with wild-type E. coli and treated with water alone (Vehicle, Veh) or given EGCG ad lib in drinking water (+EGCG). Motor function was assessed at 10, 12, and 15 weeks of age by quantifying beam traversal time (FIG. 5A), pole descent time (FIG. 5B), nasal adhesive removal time (FIG. 5C), hindlimb clasping score (FIG. 5D), and wire hang tests (FIG. 5E). FIG. 5F depicts principal component analysis of compiled motor scores from FIGS. 5A-D. Thin sections of brain were stained for Iba1 (microglia) and morphological characteristics quantified of microglia resident in the striatum (FIGS. 5G-H) and substantia nigra (FIGS. 5I-J). N=10-11 (FIGS. 5A-F), n=3 (FIGS. 5G-J) (averaged from 5-7 cells for branching). Bars represent the mean and standard error. Time courses analyzed by two-way ANOVA, with Sidak post-hoc test for between group comparisons indicated above individual time points, and brackets indicating significance between treatments. Data in (FIGS. 5G-J) analyzed by two-tailed t-test. *p≤0.05; **p≤0.01; ****p≤0.0001.

O=C(O[C@@H]1Cc2c(O)cc(O)cc2O[C@@H]1c1cc(O)c(O)c(O)c1)c1cc(O)c(O)c(O)c1 [EGCG, epigallocatechin gallate]
inhibition at 50 µM ([1]; read-out: Inhibition of Aggregation αSyn): 99%
inhibition at 50 µM ([1]; read-out: Inhibition of Aggregation αSyn (compound activity range)): > 60%
inhibition at 50 µM [2]: 77%
progressive motor deficits exacerbated by E. coli (motor performance) [3]: successfully dampens progressive motor deficits
beam traversal time (time to cross) ([3]; 15-16 weeks of age): lower
hindlimb clasping score ([3]; 15-16 weeks of age): lower
nasal adhesive removal time (time to remove) ([3]; 15-16 weeks of age): lower
pole descent time (time to descent) ([3]; 15-16 weeks of age): lower
wire hang test (time to fall) ([3]; 15-16 weeks of age): higher
